We go through 5 molecules from patent EP0185961A2, “1-Phenyl-imidazole-5-carboxylic acid derivatives, process for their preparation and their use as growth regulators” (HOECHST AKTIENGESELLSCHAFT, priority 1984, dated 1986).

One series deals with Roggen. Kind of series: Growth inhibition in cereals, greenhouse tray test, sprayed at 3-leaf stage. The format is in vivo. Particulars: % of growth increment of untreated controls, read-out: Wuchsshemmung in % bei Roggen; for pest or weed control at 1250 g/ha: 1,25 kg/ha; for pest or weed control at 2500 g/ha: 2,5 kg/ha. From the text: (§1) In Schalenversuchen im Gewächshaus werden junge Getreidepflanzen (Weizen, Gerste, Roggen) im 3-Blattstadium mit erfindungsgemäßen Verbindungen in verschiedenen Wirkstoffkonzentrationen (kg/ha) tropfnaß gespritzt. […]

A further series relates to Weizen. Described as above. The format is in vivo. The note with it: % of growth increment of untreated controls (100% = growth standstill), read-out: Wuchsshemmung in % bei Weizen; for pest or weed control at 1250 g/ha: 1,25 kg/ha; for pest or weed control at 2500 g/ha: 2,5 kg/ha.
Text: as §1

A further series concerns Gerste. The series is described as above. The note with it: % of growth increment of untreated controls, read-out: Wuchsshemmung in % bei Gerste; for pest or weed control at 1250 g/ha: 1,25 kg/ha; for pest or weed control at 2500 g/ha: 2,5 kg/ha. Format: in vivo. The text has this:
(§2) In Schalenversuchen im Gewächshaus werden junge Getreidepflanzen (Weizen, Gerste, Roggen) im 3-Blattstadium mit erfindungsgemäßen Verbindungen in verschiedenen Wirkstoffkonzentrationen (kg/ha) tropfnaß gespritzt.
(§3) Es wird außerdem die phytotoxische Wirkung der Verbindung beobachtet.

The test system of series [1] is Getreidepflanzen (Weizen, Gerste, Roggen). The series is described as follows: Phytotoxic effect observed in the cereal growth inhibition test. The format is in vivo. The note with it: cereals; one cell for 2,5 and 1,25 kg/ha.
Text: as §2, §3

The test system of series [2] is Reispflanzen. Particulars: in vivo.
Text: (§4) Reispflanzen werden in Kleinparzellen (2 m x 2 m) angezogen und im Stadium der maximalen Bestockung mit erfindungsgemäßen Verbindungen behandelt. Die Substanzen werden sowohl durch Spritzung appliziert als auch in das Wasser gegeben.
(§5) 3 Wochen nach der Behandlung wird bei allen Pflanzen der Zuwachs gemessen und die Wuchshemmung in % des Zuwachses der Kontrollpflanzen berechnet. Es wird außerdem auf eine mögliche phytotoxische Wirkung der Verbindungen geachtet.
(§6) Die Wuchshemmung wird als prozentualer Wert ermittelt, wobei 100% den Stillstand des Wachstums und 0% ein Wachstum entsprechend dem der unbehandelten Kontrollpflanzen bedeuten.
Series [3] relates to Sojabohnen. The note with it: in vivo.
Text: (§7) Etwa 10 cm große Sojabohnen werden mit den Wirkstoffzubereitungen tropfnaß bespritzt. Nach 3 Wochen wird bonitiert.
as §6
Series [4] has as its system Sojabohnen. The series is described as follows: Growth inhibition in soybeans. The note with it: Glycine max, 504 h, read-out: Wuchsshemmung (%).
Text: as §7, §6
In series [5] the test system is Reispflanzen. The series is described as follows: Growth inhibition in paddy rice, small plots. The note with it: Oryza sativa, 504 h, read-out: Wuchsshemmung (%).
Text: as §4, §5, §6

Molecules are shown by their SMILES.

On to `CCc1cccc(CC)c1-n1cncc1C(=O)n1cncn1` [Beispiel 76], for which the pest or weed control at 1250 g/ha was found to be 15% in the series on Roggen, 13% with Weizen, 17% with Gerste and 19% with Reispflanzen [5]. For the same molecule, the pest or weed control at 2500 g/ha turned out to be 23% in the series on Roggen, 21% in the series with Weizen, 27% with Gerste and 21% with Sojabohnen [4]. Also, the “Phytotox. Wirkung” value (in series [1]; in the series with Reispflanzen [2]; with Sojabohnen [3]) was “keine Schäden” throughout. In addition, in the series on Reispflanzen [5], the pest or weed control at 620 g/ha amounted to 14%.
For the molecule `CCc1cccc(CC)c1-n1cncc1C(=O)NCC(=O)O` [Beispiel 60], the pest or weed control at 1250 g/ha with Roggen stood at 17%; in the series with Weizen, 13%; in the series with Gerste, 19%; with Reispflanzen [5], 21%. In addition, the pest or weed control at 2500 g/ha with Roggen is 24%; in the series on Weizen, 23%; in the series with Gerste, 32%; in the series with Sojabohnen [4], 21%. Besides, the “Phytotox. Wirkung” value (in series [1]; in the series with Reispflanzen [2]; with Sojabohnen [3]) was “keine Schäden” each time. For the same molecule, the pest or weed control at 620 g/ha in the series on Reispflanzen [5] worked out at 13%.
Take `CCc1cccc(CC)c1-n1cncc1C(=O)NNC(N)=O` [Beispiel 70]: the pest or weed control at 1250 g/ha came out at 21% in the series on Roggen, 12% in the series with Weizen, 18% in the series with Gerste and 21% in the series on Reispflanzen [5]. The pest or weed control at 2500 g/ha with Roggen turned out to be 25%; with Weizen, 22%; in the series on Gerste, 27%; with Sojabohnen [4], 19%. Further, the “Phytotox. Wirkung” value (in series [1]; with Reispflanzen [2]; in the series on Sojabohnen [3]) was “keine Schäden” in each case. Besides, in the series with Reispflanzen [5], the pest or weed control at 620 g/ha came out at 14%.
With `CCc1cccc(CC)c1-n1cncc1C(=O)ON1C(=O)c2ccccc2C1=O` [Beispiel 2, Pthalimido-1-(2,6-diethylphenyl)-imidazol-5-carboxylat], the pest or weed control at 1250 g/ha with Roggen was 21%; in the series on Weizen, 12%; in the series on Gerste it was 18%; in the series on Reispflanzen [5], 22%. Also, the pest or weed control at 2500 g/ha amounted to 27% in the series with Roggen, 23% with Weizen, 37% in the series with Gerste and 20% in the series on Sojabohnen [4]. In addition, the “Phytotox. Wirkung” value (in series [1]; in the series with Reispflanzen [2]; with Sojabohnen [3]) was “keine Schäden” throughout. Moreover, the pest or weed control at 620 g/ha in the series on Reispflanzen [5] was 25%.
In the case of `CCc1cccc(CC)c1-n1cncc1C(=O)NN` [Beispiel 65], the pest or weed control at 1250 g/ha stood at 18% with Roggen, 14% with Weizen, 19% with Gerste and 21% in the series on Reispflanzen [5]. For the same molecule, the pest or weed control at 2500 g/ha in the series on Roggen turned out to be 24%; with Weizen it was 21%; in the series with Gerste it was 29%; with Sojabohnen [4], 17%. Also, the “Phytotox. Wirkung” value (in series [1]; with Reispflanzen [2]; in the series with Sojabohnen [3]) was “keine Schäden” throughout. For the same molecule, in the series on Reispflanzen [5], the pest or weed control at 620 g/ha is 14%.
